Results on 26 compounds are retold here after patent publication US20230159453A1 (COCRYSTAL PHARMA, INC., priority 2020, published 2023).

What is called IC50 is the concentration that inhibits the measured activity by half.

Values joined by “and” are separate entries in the source; they are usually repeats but may differ in a detail not shown here. Identical values can stand only once.

In the experiment the target is SARS2 protease (Severe acute respiratory syndrome coronavirus 2, UniProt P0DTD1). Briefly: SARS-CoV-2 protease inhibition assay (SARS2 FRET protease assay). Format: biochemical. The note with it: SARS-CoV-2 protease 25 nM, FRET, peptide substrate 1.3 μM, 30 minutes at 30° C., compounds 20 μM to 1.0 nM; read-out: IC50.

With `CCCCCCCOC(=O)N[C@@H](CC1CCCCC1)C(=O)N[C@@H](CCC(=O)N1CCOc2ccccc2C1)C(O)P(=O)(OCC)OCC` (stereo partly drawn) [Compound C14, Heptyl ((2S)-3-cyclohexyl-1-(((2S)-1-(diethoxyphosphoryl)-5-(2,3-dihydrobenzo[f][1,4]oxazepin-4(5H)-yl)-1-hydroxy-5-oxopentan-2-yl)amino)-1-oxopropan-2-yl)carbamate], the IC50 is over 200 µM.
The result for `O=C[C@H](CCC(=O)N1CCOc2ccc(Cl)cc2C1)NC(=O)[C@H](CC1CCCCC1)NC(=O)OCc1cccc(Cl)c1` [Compound C15, 3-Chlorobenzyl ((S)-1-(((S)-5-(7-chloro-2,3-dihydrobenzo[f][1,4]oxazepin-4(5H)-yl)-1,5-dioxopentan-2-yl)amino)-3-cyclohexyl-1-oxopropan-2-yl)carbamate] reads over 200 µM; that for `CCCCCOC(=O)N[C@@H](CC1CCCCC1)C(=O)N[C@H](C=O)CCC(=O)N1CCOc2ccccc2C1` [Compound C16, Pentyl ((S)-3-cyclohexyl-1-(((S)-5-(2,3-dihydrobenzo[f][1,4]oxazepin-4(5H)-yl)-1,5-dioxopentan-2-yl)amino)-1-oxopropan-2-yl)carbamate], 37.8 µM; that for `CN(C(=O)CC[C@@H](C=O)NC(=O)[C@H](CC1CCCCC1)NC(=O)OCc1cccc(Cl)c1)C1(Cc2ccccc2)CC1` [Compound C17, 3-Chlorobenzyl ((S)-1-(((S)-5-((1-benzylcyclopropyl)(methyl)amino)-1,5-dioxopentan-2-yl)amino)-3-cyclohexyl-1-oxopropan-2-yl)carbamate], 2.7 µM.
Regarding `CCCOC(=O)N[C@@H](CC1CCCCC1)C(=O)N[C@H](C=O)CCC(=O)N1CCOc2ccccc2C1` [Compound C18, Propyl ((S)-3-cyclohexyl-1-(((S)-5-(2,3-dihydrobenzo[f][1,4]oxazepin-4(5H)-yl)-1,5-dioxopentan-2-yl)amino)-1-oxopropan-2-yl)carbamate], the IC50 came to 49.3 µM.
The result for `CCCOC(=O)N[C@@H](CC1CCCCC1)C(=O)N[C@@H](CCC(=O)N1CCOc2ccccc2C1)C(O)P(=O)(OCC)OCC` (stereo partly drawn) [Compound C19, Propyl ((2S)-3-cyclohexyl-1-(((2S)-1-(diethoxyphosphoryl)-5-(2,3-dihydrobenzo[f][1,4]oxazepin-4(5H)-yl)-1-hydroxy-5-oxopentan-2-yl)amino)-1-oxopropan-2-yl)carbamate] reads 94.3 µM.
The result for `CC(C)(C)OC(=O)N1CCN(C(=O)CC[C@@H](C=O)NC(=O)[C@H](CC2CCCCC2)NC(=O)OCc2cccc(Cl)c2)CC1c1ccccc1` (stereo partly drawn) [Compound C20, tert-butyl 4-((S)-4-((S)-2-((((3-chlorobenzyl)oxy)carbonyl)amino)-3-cyclohexylpropanamido)-5-oxopentanoyl)-2-phenylpiperazine-1-carboxylate] reads over 200 µM.
The result for `CCOP(=O)(OCC)C(O)[C@H](CCC(=O)N1CCOc2ccccc2C1)NC(=O)[C@H](CC1CCCCC1)NC(=O)N1CCc2ccccc21` (stereo partly drawn) [Compound C21, Diethyl ((2S)-2-((S)-3-cyclohexyl-2-(indoline-1-carboxamido)propanamido)-5-(2,3-dihydrobenzo[f][1,4]oxazepin-4(5H)-yl)-1-hydroxy-5-oxopentyl)phosphonate] reads over 200 µM; that for `CN(C)C(=O)CC[C@@H](C=O)NC(=O)C(CC(C)(C)C)NC(=O)OCc1cccc(Cl)c1` (stereo partly drawn) [Compound C22, 3-Chlorobenzyl (1-(((S)-5-(dimethylamino)-1,5-dioxopentan-2-yl)amino)-4,4-dimethyl-1-oxopentan-2-yl)carbamate], 3.8 µM.
For the compound `CC(C)(C)OC(=O)N1CCC(OC(=O)N[C@@H](CC2CCCCC2)C(=O)N[C@H](C=O)CCC(=O)N2CCOc3ccccc3C2)CC1` [Compound C23, Tert-butyl 4-((((S)-3-cyclohexyl-1-(((S)-5-(2,3-dihydrobenzo[f][1, 4]oxazepin-4(5H)-yl)-1,5-dioxopentan-2-yl)amino)-1-oxopropan-2-yl)carbamoyl)oxy)piperidine-1-carboxylate], the IC50 is over 200 µM.
The result for `CCCCCCCOC(=O)N[C@@H](CC1CCCCC1)C(=O)N[C@H](C=O)CCC(=O)N1CCOc2ccccc2C1` [Compound C24, Heptyl ((S)-3-cyclohexyl-1-(((S)-5-(2,3-dihydrobenzo[f][1,4]oxazepin-4(5H)-yl)-1,5-dioxopentan-2-yl)amino)-1-oxopropan-2-yl)carbamate] reads over 200 µM.
Take `CC(OC(=O)N[C@@H](CC1CCCCC1)C(=O)N[C@H](C=O)CCC(=O)N(C)CCc1ccccc1)c1cccc(Cl)c1` (some centres unmarked) [Compound C25]: the IC50 came out at 11.1 µM.
The result for `CCCCCCOC(=O)N[C@@H](CC1CCCCC1)C(=O)N[C@H](C=O)CCC(=O)N1CCOc2ccccc2C1` [Compound C26, Hexyl ((S)-3-cyclohexyl-1-(((S)-5-(2,3-dihydrobenzo[f][1,4]oxazepin-4(5H)-yl)-1,5-dioxopentan-2-yl)amino)-1-oxopropan-2-yl)carbamate] reads over 200 µM.
Turning to `O=C[C@H](CC1CCN(CCc2ccccc2)C1=O)NC(=O)[C@H](CC1CCCCC1)NC(=O)OCc1cccc(Cl)c1` (stereo partly drawn) [Compound C27, 3-Chlorobenzyl ((2S)-3-cyclohexyl-1-oxo-1-((1-oxo-3-(2-oxo-1-phenethylpyrrolidin-3-yl)propan-2-yl)amino)propan-2-yl) carbamate], the IC50 is over 200 µM.
Consider `CCOP(=O)(OCC)C(O)[C@H](CCC(=O)N1CCOc2ccccc2C1)NC(=O)[C@H](CC1CCCCC1)NC(=O)OC1CCN(S(C)(=O)=O)CC1` (stereo partly drawn) [Compound C28, 1-(Methylsulfonyl) piperidin-4-yl((2S)-3-cyclohexyl-1-(((2S)-1-(diethoxyphosphoryl)-5-(2,3-dihydrobenzo[f][1,4]oxazepin-4(5H)-yl)-1-hydroxy-5-oxopentan-2-yl)amino)-1-oxopropan-2-yl)carbamate], for which the IC50 is over 200 µM.
For `CC(C[C@@H](C=O)NC(=O)[C@H](CC1CCCCC1)NC(=O)OCc1cccc(Cl)c1)C(=O)N1CCOc2ccccc2C1` (stereo partly drawn) [Compound C29, 3-Chlorobenzyl ((2S)-3-cyclohexyl-1-(((2S)-5-(2,3-dihydrobenzo[f][1,4]oxazepin-4(5H)-yl)-4-methyl-1,5-dioxopentan-2-yl)amino)-1-oxopropan-2-yl)carbamate], the IC50 was over 200 µM.
As to `CS(=O)(=O)N1CCC(OC(=O)N[C@@H](CC2CCCCC2)C(=O)N[C@H](C=O)CCC(=O)N2CCOc3ccccc3C2)CC1` [Compound C30, 1-(Methylsulfonyl) piperidin-4-yl((S)-3-cyclohexyl-1-(((S)-5-(2,3-dihydrobenzo[f][1,4]oxazepin-4(5H)-yl)-1,5-dioxopentan-2-yl)amino)-1-oxopropan-2-yl)carbamate], the IC50 was 42.3 µM.
The result for `CCOP(=O)(OCC)C(O)[C@H](CCC(=O)N1CCOc2ccccc2C1)NC(=O)[C@H](CC1CCCCC1)NC(=O)N(C)Cc1cccc(Cl)c1` (stereo partly drawn) [Compound C31, Diethyl ((2S)-2-((S)-2-(3-(3-chlorobenzyl)-3-methylureido)-3-cyclohexylpropanamido)-5-(2,3-dihydrobenzo[f][1,4]oxazepin-4(5H)-yl)-1-hydroxy-5-oxopentyl)phosphonate] reads over 200 µM; that for `CC(=O)N1CCC2(CC1)CC(CC(C=O)NC(=O)[C@H](CC1CCCCC1)NC(=O)OCc1cccc(Cl)c1)C(=O)N2` (stereo partly drawn) [Compound C32, 3-Chlorobenzyl ((2S)-1-((1-(8-acetyl-2-oxo-1,8-diazaspiro[4.5]decan-3-yl)-3-oxopropan-2-yl)amino)-3-cyclohexyl-1-oxopropan-2-yl)carbamate], 0.023 µM.
With `O=C[C@H](CCC(=O)NC1(Cc2ccccc2)CC1)NC(=O)[C@H](CC1CCCCC1)NC(=O)OCc1cccc(Cl)c1` [Compound C33, 3-Chlorobenzyl ((S)-1-(((S)-5-((1-benzylcyclopropyl)amino)-1,5-dioxopentan-2-yl)amino)-3-cyclohexyl-1-oxopropan-2-yl)carbamate], the IC50 was over 200 µM.
For `CC(C)C[C@H](NC(=O)OC1CCN(C(=O)OC(C)(C)C)CC1)C(=O)N[C@H](C=O)C[C@@H]1CCNC1=O` [Compound C34, Tert-butyl 4-((((S)-4-methyl-1-oxo-1-(((S)-1-oxo-3-((S)-2-oxopyrrolidin-3-yl)propan-2-yl)amino)pentan-2-yl)carbamoyl)oxy) piperidine-1-carboxylate] the value was 0.1 µM.
Regarding `CN(Cc1cccc(Cl)c1)C(=O)N[C@@H](CC1CCCCC1)C(=O)N[C@H](C=O)CCC(=O)N1CCOc2ccccc2C1` [Compound C35, (S)-2-(3-(3-Chlorobenzyl)-3-methylureido)-3-cyclohexyl-N—((S)-5-(2,3-dihydrobenzo[f][1,4]oxazepin-4(5H)-yl)-1,5-dioxopentan-2-yl)propanamide], the IC50 is 18.9 µM.
As to `CCOP(=O)(OCC)C(O)[C@H](CC1CCNC1=O)NC(=O)[C@H](Cc1ccccc1)NC(=O)OCc1cccc(Cl)c1` (some centres unmarked) [Compound C36], the IC50 is 2.5 µM.
Take `CC(C)C[C@H](NC(=O)N(Cc1ccccc1)C1CCN(C(=O)OC(C)(C)C)CC1)C(=O)N[C@H](C=O)C[C@@H]1CCNC1=O` [Compound C37, Tert-butyl 4-(1-benzyl-3-((S)-4-methyl-1-oxo-1-(((S)-1-oxo-3-((S)-2-oxopyrrolidin-3-yl)propan-2-yl)amino)pentan-2-yl)ureido)piperidine-1-carboxylate]: the IC50 is 0.137 µM and 0.262 µM.
The result for `CC(C)C[C@H](NC(=O)OC(Cc1ccccc1)c1ccccc1)C(=O)N[C@H](C=O)C[C@@H]1CCNC1=O` (stereo partly drawn) [Compound C38, 1,2-Diphenylethyl ((S)-4-methyl-1-oxo-1-(((S)-1-oxo-3-((S)-2-oxopyrrolidin-3-yl)propan-2-yl)amino)pentan-2-yl)carbamate] reads 0.016 µM; that for `CC(C)C[C@H](NC(=O)OC(C)Cc1ccccc1)C(=O)N[C@H](C=O)C[C@@H]1CCNC1=O` (stereo partly drawn) [Compound C39, 1-Phenylpropan-2-yl ((S)-4-methyl-1-oxo-1-(((S)-1-oxo-3-((S)-2-oxopyrrolidin-3-yl)propan-2-yl)amino)pentan-2-yl)carbamate], 0.153 µM.
